In brackets after ≈: the same amount, converted by molar mass.
Columns and labels:
[1] = system: sweet potato root-knot nematodes; assay: Nematode Control Test Example 1: emulsions mixed with infested soil, cherry tomato pot test; format: in vivo; conditions: for Aerial part weight / Root-knot parasitism level: cherry tomato, after six weeks, sprayed liquid 10 ppm, concentration in soil 0.3 ppm; for Aerial part weight: mixed with soil; for nematode control effect (in words): concentration of active ingredient in the soil of 0.3 ppm; for Root-knot parasitism level: scale 0-4, mean
Description: Each of abamectin 7.5% emulsion from NO. […] One liter of Pleistocene volcanic ash soil in which sweet potato root-knot nematodes had proliferated (the mean of initial sweet potato root-knot nematode density in the fourth-repeated cultivations: 235 nematodes/20 g of soil) was placed in a polyethylene bag and 30 ml of 10 ppm liquid of each chemical agent was mixed therewith while sprayed. The soil mixed with the chemical agent was filled in a pot with a surface area of 162 cm^2. A group where 1 L of soil was mixed and treated with 200 mg of a commercially available organophosphorus-based nematocide fosthiazate 1.5% granule (Ishihara Nemathorin Ace granule, a product from Ishihara Sangyo Kaisha, Ltd.) as a control chemical agent and a group with no treatment were set up. After the treatment with the chemical agent, three stocks of cherry tomato (variety Regina nursery plant with three true leaves, a product from Takii seed Co., Ltcd.) were planted. The test was repeated twice and cultivation management was conducted in a greenhouse. After six weeks, the weight of aerial parts and root-knot parasitism level were investigated.
(§1) In the test below, evaluation criteria for the root-knot parasitism level are as follows:
(§2) The evaluation was conducted using additional intermediate levels of 0.5 between each parasitism levels below at the investigation.
(§3) Parasitism level 0: No root-knots are noted at all.
(§4) Parasitism level 1: The formation of root-knots is noted in not more than 25% of the root.
(§5) Parasitism level 2: The formation of root-knots is noted in more than 25% and not more than 50% of the root.
(§6) Parasitism level 3: The formation of root-knots is noted in more than 50% and not more than 75% of the root.
(§7) Parasitism level 4: The formation of root-knots is noted in more than 75% of the root.

[2] = system: sweet potato root-knot nematodes; assay: Nematode Control Test Example 2: abamectin and moxidectin emulsions, pot test; format: in vivo; conditions: for Aerial part weight: cherry tomato; for Aerial part weight / Root-knot parasitism level: after eight weeks; for Root-knot parasitism level: scale 0-4, mean
Description: as §1, §2, §3, §4, §5, §6, §7
Abamectin 7.5% emulsion from NO. 3 in Formulation Example 1 and moxidectin 7.5% emulsion from NO. 38 in Formulation Example 3 were prepared by diluting with tap water (water hardness about 70) at a concentration of active ingredient of 5 ppm, 10 ppm, and 20 ppm. One liter of Pleistocene volcanic ash soil in which sweet potato root-knot nematodes had proliferated (initial sweet potato root-knot nematode density: the mean in fourth-repeated cultivations 260 nematodes/20 g of soil) was placed in a polyethylene bag and 30 ml of each of the above was mixed therewith while sprayed. The soil mixed with the chemical agent was filled in a pot with a surface area of 162 cm^2. A group where 1 L of soil was mixed and treated with 200 mg of a commercially available organophosphorus-based nematocide fosthiazate 1.5% granule as a control chemical agent and a group with no treatment were set up. After the treatment with the chemical agent, four stocks of cherry tomato (variety Regina nursery plant with four true leaves) were planted. The test was repeated twice and cultivation management was conducted in a greenhouse. After eight weeks, the weight of aerial parts and root-knot parasitism level were investigated.

[3] = cited from earlier work
[4] = Non Patent Literature 4; cited from earlier work
[5] = sprayed liquid 5 ppm, concentration in soil 0.15 ppm
[6] = sprayed liquid 10 ppm, concentration in soil 0.3 ppm
[7] = sprayed liquid 20 ppm, concentration in soil 0.6 ppm

Compound | Aerial part weight [1] | nematode control effect (in words) [1] | Root-knot parasitism level [1] | further results
CO[C@H]1C[C@H](O[C@H]2[C@H](C)O[C@@H](O[C@@H]3/C(C)=C/C[C@@H]4C[C@@H](C[C@]5(C=C[C@H](C)[C@@H](C6CCCCC6)O5)O4)OC(=O)[C@@H]4C=C(C)[C@@H](O)[C@H]5OC/C(=C\C=C\[C@@H]3C)[C@]54O)C[C@@H]2OC)O[C@@H](C)[C@@H]1O [DOR, doramectin] | 3.8 g/stock | apparent nematode control effect | 0.58 | 
CO/N=C1\C[C@]2(C[C@@H]3C[C@@H](C/C=C(\C)C[C@@H](C)/C=C/C=C4\CO[C@@H]5[C@H](O)C(C)=C[C@@H](C(=O)O3)[C@]45O)O2)O[C@H](/C(C)=C/C(C)C)[C@H]1C [MOX, moxidectin] | 4.1 g/stock |  | 1.33 | Aerial part weight [2, 5]: 44 g/stock; Aerial part weight [2, 6]: 54 g/stock; Aerial part weight [2, 7]: 42 g/stock; Root-knot parasitism level [2, 5]: 2.81; Root-knot parasitism level [2, 6]: 1.75; Root-knot parasitism level [2, 7]: 1.38
CC1=C[C@H]2C(=O)O[C@H]3C[C@@H](C/C=C(\C)C[C@@H](C)/C=C/C=C4\CO[C@H]([C@@H]1O)[C@@]42O)O[C@]1(C3)C[C@H](O)[C@H](C)[C@@H](/C(C)=C/C(C)C)O1 [NEM, nemadectin] | 3.0 g/stock |  | 4.00 | 
CO[C@H]1C[C@H](O[C@@H]2/C(C)=C/C[C@@H]3C[C@@H](C[C@]4(CC[C@H](C)[C@@H](C5CCCCC5)O4)O3)OC(=O)[C@@H]3C=C(C)/C(=N/O)[C@H]4OC/C(=C\C=C\[C@@H]2C)[C@]43O)O[C@@H](C)[C@@H]1O [SEL, selamectin] | 2.6 g/stock | apparently exhibited fewer effects | 4.00 | 
CNC(=O)O/N=C(\SC)C(=O)N(C)C [oxamyl] |  |  |  | solubility to water [3]: 280 mg/mL (≈ 1280 mM)
abamectin | 3.7 g/stock | apparent nematode control effect | 0.75 | Aerial part weight [2, 5]: 55 g/stock; Aerial part weight [2, 6]: 49 g/stock; Aerial part weight [2, 7]: 45 g/stock; capability of controlling nematodes (in words) ([2]; comparison abamectin vs moxidectin, 0.15-0.6 ppm in soil): slightly better effect than moxidectin; Root-knot parasitism level [2, 5]: 2.38; Root-knot parasitism level [2, 6]: 1.17; Root-knot parasitism level [2, 7]: 1.00; breakdown by soil microorganisms [4]: quickly broken down; soil adsorption [4]: very high
emamectin | 3.3 g/stock | apparently exhibited fewer effects | 3.92 | 
ivermectin | 3.7 g/stock | apparent nematode control effect | 0.83 | 
lepimectin | 3.1 g/stock |  | 4.00 | 
milbemectin | 2.5 g/stock |  | 4.00 | solubility to water [3]: 0.00088 mg/mL

— patent publication US20170360029A1, “Chemical Agent For Controlling Soil Nematode Which Comprises Macrolide-Type Compound” (Maruwa Biochemical Co., Ltd., priority 2012, published 2017)
